# Read-outs that look alike come from different tables or passages of the source.
# Tests used:
# [1] = target: phosphorylated EGFR (pEGFR) (Homo sapiens (Human), UniProt P00533); assay: Detection of phosphorylated EGFR (pEGFR) by AlphaLISA in A431 cells; type: cell-based; settings: A431 cells (10% FBS), 4 hours incubation, EGF 30 ng/mL for 10 minutes
# Summary of the method: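 A431 cells in 10% FBS exposed to compound for 4 h at 37 °C, then stimulated 10 min with 30 ng/mL EGF. Lysates assayed for phospho-EGFR by AlphaLISA. % inhibition relative to DMSO and staurosporine controls; IC50 from four-parameter curve fit.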
# Ba/F3 ERBB2 YVMA = assay: Cell viability assay (CellTiter Glo, 72 hours); type: cell-based, mouse
# Experimental: Cells were treated with compounds, and cell viability was measured as a metric of kinase inhibition.
# BT-474, A431, MDA-MB-175VII, NCI-H1781, MCF7, and Ba/F3 cell lines were tested. The Ba/F3 cell line is IL-3-dependent mouse cell line derived from the C3H mouse strain. Ba/F3 cell lines were engineered to express human ERBB2 or EGFR kinases, rendering the cells IL-3 independent. The lines were generated via retroviral transduction utilizing a Moloney murine leukemia virus (MMLV) promoter, and constructs are stably integrated into the cell genome. The sequences of the ERBB2 and EGFR genes used were NCBI Reference Sequences NM_004448.3 and NM_005228.3, respectively.
# BT-474, A431, MDA-MB-175VII, NCI-H1781 and MCF7 cells were grown in the appropriate growth medium as described in Table B2 below, and harvested at 50-80% confluence. BT-474, A431, MDA-MB-175VII, NCI-H1781 and MCF7 cells were counted and seeded at 2,000 or 1,500 cells per well in 384-well tissue culture plates (see Table B2). Similarly, Ba/F3 cell lines engineered to express EGFR, ERBB2, or ERBB2 mutants were grown, harvested, counted and seeded at 3000 cells per well in 96-well plates. A subset of wells contained media only (low control, “LC”).
# Table B1 provides the growth media and number of cells seeded per well for the each cell line.
# Compounds were dissolved in DMSO and serially diluted. Serially-diluted compound or a DMSO only control (high control, “HC”) was added to the plated cells in each well. Compounds were tested at concentrations of about 10 μM to 0.51 nM, using three-fold dilutions. The final proportion of DMSO never exceeded 0.1%.
# Plates were placed in a 37° C., 5% CO2 incubator for 72 hours. Plates were then removed from the incubator and equilibrated for 15 minutes at room temperature. 40 μl of CellTiter Glo reagent (Promega) was added to measure the relative level of metabolically active cells by quantifying intracellular ATP concentrations. Plates were incubated for 30 minutes at room temperature, and luminescence was measured. Percent viability was normalized to a vehicle control only using the following formula: % viability=100×(LumSample−LumLC)/(LumHC−LumLC). Graphical curves were fitted using a nonlinear regression model with a sigmoidal dose response.
# [2] = target: phosphorylated ERBB2 (pERBB2) (Homo sapiens (Human), UniProt P04626); assay: Detection of phosphorylated ERBB2 (pERBB2) by ELISA in BT-474 cells; type: cell-based; settings: four hours incubation with compound
# Sequence of phosphorylated ERBB2 (pERBB2) (P04626 23-1255): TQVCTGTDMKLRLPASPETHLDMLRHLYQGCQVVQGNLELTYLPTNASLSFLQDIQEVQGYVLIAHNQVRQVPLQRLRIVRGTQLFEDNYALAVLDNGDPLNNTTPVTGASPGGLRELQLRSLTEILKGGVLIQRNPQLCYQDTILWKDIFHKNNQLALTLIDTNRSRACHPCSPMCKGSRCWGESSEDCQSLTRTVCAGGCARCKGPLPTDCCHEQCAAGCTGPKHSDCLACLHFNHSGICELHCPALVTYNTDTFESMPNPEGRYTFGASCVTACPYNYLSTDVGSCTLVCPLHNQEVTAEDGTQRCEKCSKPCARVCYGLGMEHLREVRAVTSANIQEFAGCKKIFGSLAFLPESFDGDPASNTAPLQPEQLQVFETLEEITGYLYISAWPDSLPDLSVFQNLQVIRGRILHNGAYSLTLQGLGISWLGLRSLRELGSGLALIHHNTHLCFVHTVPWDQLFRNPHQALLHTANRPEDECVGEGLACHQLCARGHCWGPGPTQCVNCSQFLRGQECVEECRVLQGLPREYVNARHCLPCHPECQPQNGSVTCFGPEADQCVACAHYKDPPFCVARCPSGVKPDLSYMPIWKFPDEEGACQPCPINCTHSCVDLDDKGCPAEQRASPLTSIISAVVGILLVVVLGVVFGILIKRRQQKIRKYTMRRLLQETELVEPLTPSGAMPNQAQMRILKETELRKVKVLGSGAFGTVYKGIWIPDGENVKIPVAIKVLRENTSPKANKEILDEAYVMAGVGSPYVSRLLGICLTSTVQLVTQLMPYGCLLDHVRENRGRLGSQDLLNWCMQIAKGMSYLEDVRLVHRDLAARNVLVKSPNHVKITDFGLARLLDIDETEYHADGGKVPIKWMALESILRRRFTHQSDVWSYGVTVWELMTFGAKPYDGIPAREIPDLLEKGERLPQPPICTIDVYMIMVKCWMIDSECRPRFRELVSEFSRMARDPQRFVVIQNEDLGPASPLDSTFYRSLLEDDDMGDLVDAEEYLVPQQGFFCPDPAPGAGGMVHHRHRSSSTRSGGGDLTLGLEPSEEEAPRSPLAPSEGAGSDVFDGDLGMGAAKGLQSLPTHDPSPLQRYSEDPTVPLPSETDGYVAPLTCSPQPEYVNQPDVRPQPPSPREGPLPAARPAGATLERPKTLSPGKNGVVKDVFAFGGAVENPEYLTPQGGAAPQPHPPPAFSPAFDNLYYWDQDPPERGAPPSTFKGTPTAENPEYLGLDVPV
# Summary of the method: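 BT-474 cells were exposed to serially diluted compounds for 4 h at 37 °C, then lysed. Phospho-ERBB2 in lysates was captured by ELISA and detected with an HRP anti-phosphotyrosine antibody and TMB.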
# [3] = Ba/F3 cells engineered to express human ERBB2 YVMA mutant, 72 hours, CellTiter Glo viability, read-out: Ba/F3 ERBB2 YVMA, IC50
# [4] = Mus musculus, BaF3, 72 h, read-out: Ba/F3 ERBB2 YVMA, IC50, nM
# [5] = Mus musculus, BaF3, 72 h, Ba/F3 cells engineered to express human ERBB2 YVMA mutant, 72 hours, CellTiter Glo viability, read-out: Ba/F3 ERBB2 YVMA, IC50
# Sequence of phosphorylated EGFR (pEGFR) (P00533 25-1210): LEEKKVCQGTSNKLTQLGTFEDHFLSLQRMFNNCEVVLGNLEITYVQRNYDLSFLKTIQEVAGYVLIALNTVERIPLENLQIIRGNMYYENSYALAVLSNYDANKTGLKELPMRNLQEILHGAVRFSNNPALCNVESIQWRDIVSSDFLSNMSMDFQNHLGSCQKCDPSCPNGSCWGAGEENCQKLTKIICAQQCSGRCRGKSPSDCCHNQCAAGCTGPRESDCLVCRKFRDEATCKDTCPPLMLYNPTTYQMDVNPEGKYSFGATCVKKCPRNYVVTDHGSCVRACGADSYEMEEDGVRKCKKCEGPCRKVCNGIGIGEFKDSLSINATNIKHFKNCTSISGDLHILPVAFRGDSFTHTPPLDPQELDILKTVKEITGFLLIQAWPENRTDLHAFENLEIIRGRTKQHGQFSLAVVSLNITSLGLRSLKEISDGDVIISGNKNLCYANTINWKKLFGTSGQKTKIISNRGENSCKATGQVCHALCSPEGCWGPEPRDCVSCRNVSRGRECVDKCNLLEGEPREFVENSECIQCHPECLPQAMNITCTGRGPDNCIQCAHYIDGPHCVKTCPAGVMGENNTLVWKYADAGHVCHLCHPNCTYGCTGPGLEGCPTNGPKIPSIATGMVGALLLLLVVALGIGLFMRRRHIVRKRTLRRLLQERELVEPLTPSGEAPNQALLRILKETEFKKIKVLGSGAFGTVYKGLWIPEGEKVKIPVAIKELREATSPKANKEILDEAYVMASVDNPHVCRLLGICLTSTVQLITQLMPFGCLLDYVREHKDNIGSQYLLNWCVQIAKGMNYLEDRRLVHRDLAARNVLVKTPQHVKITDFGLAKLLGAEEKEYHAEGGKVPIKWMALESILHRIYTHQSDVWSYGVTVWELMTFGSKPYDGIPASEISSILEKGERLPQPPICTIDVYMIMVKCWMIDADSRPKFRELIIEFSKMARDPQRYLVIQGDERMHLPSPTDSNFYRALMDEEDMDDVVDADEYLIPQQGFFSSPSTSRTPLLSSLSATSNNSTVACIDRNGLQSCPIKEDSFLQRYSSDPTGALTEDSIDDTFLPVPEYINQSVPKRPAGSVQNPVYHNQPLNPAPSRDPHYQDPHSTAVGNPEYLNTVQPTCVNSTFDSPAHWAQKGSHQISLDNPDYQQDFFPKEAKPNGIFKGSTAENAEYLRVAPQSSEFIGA
Compound,IC50 [1] [nM],IC50 (Ba/F3 ERBB2 YVMA; [3]) [nM],IC50 [2] [nM],IC50 (Ba/F3 ERBB2 YVMA; [4]) [nM],IC50 (Ba/F3 ERBB2 YVMA; [5]) [nM]
"Cc1cc(Nc2ncnc3cc4c(nc23)N2CCCN(C(=O)/C=C/CN(C)C)C(CO4)C2)ccc1Oc1ccn2ncnc2c1 (single isomer, unassigned) [Example S55, Enantiomer 1, (E)-1-(4-((4-([1,2,4]triazolo[1,5-a]pyridin-7-yloxy)-3-methylphenyl)amino)-8,9,11,12-tetrahydro-6,11-methanopyrimido[4′,5′:5,6]pyrido[3,2-b][1,4,8]oxadiazecin-10 (7H)-yl)-4-(dimethylamino)but-2-en-1-one Enantiomer 1]",> 10000,5.88,–,–,–
"Cc1cc(Nc2ncnc3cc4c(nc23)N2CCCN(C(=O)/C=C/CN(C)C)C(CO4)C2)ccc1Oc1ccn2ncnc2c1 (single isomer, unassigned) [Example S55, Enantiomer 2, (E)-1-(4-((4-([1,2,4]triazolo[1,5-a]pyridin-7-yloxy)-3-methylphenyl)amino)-8,9,11,12-tetrahydro-6,11-methanopyrimido[4′,5′:5,6]pyrido[3,2-b][1,4,8]oxadiazecin-10 (7H)-yl)-4-(dimethylamino)but-2-en-1-one Enantiomer 2]",> 10000,> 500,–,–,–
"C=CC(=O)N1CCN2CC1COc1cc3ncnc(Nc4ccc(Oc5ccn6ncnc6c5)c(C)c4)c3nc12 (stereo in doubt) [Compound 1, 1-((10S)-4-((4-([1,2,4]triazolo[1,5-a]pyridin-7-yloxy)-3-methylphenyl)amino)-7,8,10,11-tetrahydro-9H-6,10-methanopyrimido[4′,5′:5,6]pyrido[3,2-b][1,4,7]oxadiazonin-9-yl)prop-2-en-1-one]",450,–,9.77,7.77,–
"C=CC(=O)N1CCN2CC1COc1cc3ncnc(Nc4ccc(Oc5ccn6ncnc6c5)c(C)c4)c3nc12 (stereo in doubt) [Compound 2, 1-((10R)-4-((4-([1,2,4]triazolo[1,5-a]pyridin-7-yloxy)-3-methylphenyl)amino)-7,8,10,11-tetrahydro-9H-6,10-methanopyrimido[4′,5′:5,6]pyrido[3,2-b][1,4,7]oxadiazonin-9-yl)prop-2-en-1-one]",> 10000,–,422,116,–
"C=CC(=O)N1CCN2CC1COc1cc3ncnc(Nc4ccc(Oc5ccc6c(c5)ncn6C)c(C)c4)c3cc12 (stereo in doubt) [Compound 3, 1-((10S)-4-((3-methyl-4-((1-methyl-1H-benzo[d]imidazol-5-yl)oxy)phenyl)amino)-7,8,10,11-tetrahydro-9H-6,10-methano[1,4,7]oxadiazonino[3,2-g]quinazolin-9-yl)prop-2-en-1-one]",1470,–,28.3,18,–
"C=CC(=O)N1CCN2CC1COc1cc3ncnc(Nc4ccc(Oc5ccn6ncnc6c5)c(C)c4)c3cc12 (stereo in doubt) [Compound 4, 1-((10S)-4-((4-([1,2,4]triazolo[1,5-a]pyridin-7-yloxy)-3-methylphenyl)amino)-7,8,10,11-tetrahydro-9H-6,10-methano[1,4,7]oxadiazonino[3,2-g]quinazolin-9-yl)prop-2-en-1-one]",1860,–,7.36,8.63,–
"C=CC(=O)N1CCN2CC1COc1cc3ncnc(Nc4ccc(Oc5ccn6ncnc6c5)c(C)c4)c3cc12 (stereo in doubt) [Compound 5, 1-((10R)-4-((4-([1,2,4]triazolo[1,5-a]pyridin-7-yloxy)-3-methylphenyl)amino)-7,8,10,11-tetrahydro-9H-6,10-methano[1,4,7]oxadiazonino[3,2-g]quinazolin-9-yl)prop-2-en-1-one]",> 10000,–,1200,304,–
"Cc1cc(Nc2ncnc3cc4c(cc23)N2CCN(C(=O)/C=C/CN(C)C)C(CO4)C2)ccc1Oc1ccn2ncnc2c1 (stereo in doubt) [Compound 8, (E)-1-((10R)-4-((4-([1,2,4]triazolo[1,5-a]pyridin-7-yloxy)-3-methylphenyl)amino)-7,8,10,11-tetrahydro-9H-6,10-methano[1,4,7]oxadiazonino[3,2-g]quinazolin-9-yl)-4-(dimethylamino)but-2-en-1-one]",> 10000,–,547,–,> 500
"C=CC(=O)N1CCN2CC1COc1cc3ncnc(Nc4ccc(Oc5ccc6c(c5)ncn6C)c(C)c4)c3nc12 (stereo in doubt) [Compound 14, 1-((10S)-4-((3-methyl-4-((1-methyl-1H-benzo[d]imidazol-5-yl)oxy)phenyl)amino)-7,8,10,11-tetrahydro-9H-6,10-methanopyrimido[4′,5′:5,6]pyrido[3,2-b][1,4,7]oxadiazonin-9-yl)prop-2-en-1-one]",532,–,43.8,21.6,–
"CC#CC(=O)N1CCN2CC1COc1cc3ncnc(Nc4ccc(Oc5ccn6ncnc6c5)c(C)c4)c3cc12 (stereo in doubt) [Compound 17, 1-((10R)-4-((4-([1,2,4]triazolo[1,5-a]pyridin-7-yloxy)-3-methylphenyl)amino)-7,8,10,11-tetrahydro-9H-6,10-methano[1,4,7]oxadiazonino[3,2-g]quinazolin-9-yl)but-2-yn-1-one]",> 10000,–,1050,–,> 500
"C=CC(=O)N1CCN2CC1COc1cc3ncnc(Nc4ccc(Oc5ccc(C)nc5)c(C)c4)c3nc12 (stereo in doubt) [Compound 20, 1-((10S)-4-((3-methyl-4-((6-methylpyridin-3-yl)oxy)phenyl)amino)-7,8,10,11-tetrahydro-9H-6,10-methanopyrimido[4′,5′:5,6]pyrido[3,2-b][1,4,7]oxadiazonin-9-yl)prop-2-en-1-one]",192,–,21.1,5.28,–
"C=CC(=O)N1CCN2CC1COc1cc3ncnc(Nc4ccc(Oc5ccc(CC)nc5)c(C)c4)c3nc12 (stereo in doubt) [Compound 22, 1-((10S)-4-((4-((6-ethylpyridin-3-yl)oxy)-3-methylphenyl)amino)-7,8,10,11-tetrahydro-9H-6,10-methanopyrimido[4′,5′:5,6]pyrido[3,2-b][1,4,7]oxadiazonin-9-yl)prop-2-en-1-one]",684,–,70,56.1,–
"CN(C)C/C=C/C(=O)N1CCN2C[C@H]1COc1cc3ncnc(Nc4cc(F)c(Oc5ccn6ncnc6c5)cc4F)c3nc12 [Compound 48, (E)-1-((10S)-4-((4-([1,2,4]triazolo[1,5-a]pyridin-7-yloxy)-2,5-difluorophenyl)amino)-7,8,10,11-tetrahydro-9H-6,10-methanopyrimido[4′,5′:5,6]pyrido[3,2-b][1,4,7]oxadiazonin-9-yl)-4-(dimethylamino)but-2-en-1-one]",3300,–,10.8,–,–
"Cc1cc(Nc2ncnc3cc4c(nc23)N2CCN(C(=O)/C=C/CN(C)C)C(CCO4)C2)ccc1Oc1ccn2ncnc2c1 (stereo not shown) [Compound 52, (E)-1-(4-((4-([1,2,4]triazolo[1,5-a]pyridin-7-yloxy)-3-methylphenyl)amino)-7,8,11,12-tetrahydro-6,10-methanopyrimido[4′,5′:5,6]pyrido[3,2-b][1,4,7]oxadiazecin-9 (10H)-yl)-4-(dimethylamino)but-2-en-1-one]",> 10000,–,635,–,–
"Cc1cc(Nc2ncnc3cc4c(nc23)N2CCN(C(=O)/C=C/CN(C)C)CC(CO4)C2)ccc1Oc1ccn2ncnc2c1 (stereo not shown) [Compound 57, (E)-1-(4-((4-([1,2,4]triazolo[1,5-a]pyridin-7-yloxy)-3-methylphenyl)amino)-7,8,11,12-tetrahydro-6,11-methanopyrimido[4,5′:5,6]pyrido[3,2-b][1,4,7]oxadiazecin-9 (10H)-yl)-4-(dimethylamino)but-2-en-1-one]",> 10000,–,32.8,–,–

# From US20230382923A1, “FUSED TETRACYCLIC QUINAZOLINE DERIVATIVES AS INHIBITORS OF ERBB2” (EnLiven Therapeutics, Inc., priority 2021, published 2023)
